# Experimental data from patent publication US5965544A, “Synthetic multivalent sLe^x containing polylactosamines and methods for use” (Glycim Oy, priority 1996, dated 1999).
# Entries after “also recorded” stand apart in the source; their conditions may differ. Like-named read-outs stand apart in the source and are kept apart here.
# Legend:
# [1] = test system: mouse sperm adhesion to eggs; conditions: Litscher et al. 1995; cited from earlier work
# [2] = test system: adhesion; conditions: Stoolman et al. 1984; cited from earlier work
# [3] = test system: L-selectin-dependent lymphocyte adhesion to cardiac endothelium; test: Stamper-Woodruff binding assay: lymphocyte adhesion to endothelium of rejecting cardiac transplants; type: cell-based, rat; conditions: rejecting cardiac allografts
# Description: The inhibition of lymphocyte adhesion to cardiac endothelium during acute rejection episodes by oligosaccharides was examined using the family of oligosaccharides synthesized by enzyme-aided synthesis in Example 2: monovalent sLex tetrasaccharide (1), divalent sLex decasaccharide (4) and tetravalent sLex 22-meric oligosaccharide (9) and their non-fucosylated sialyl lactosamine analogues (3, 8). […] Concomitantly the non-fucosylated sialyl-lactosamine glycans were without effect.
# In parallel experiments the capacity of the tetravalent sLex glycans 9 and 17, and of the nonfucosylated analogs glycan 8 and glycan 16, were compared in inhibiting L-selectin-dependent lymphocyte adhesion to cardiac endothelium during acute rejection. The lymphocytes were preincubated for 30 min with varying concentrations of the oligosaccharides and used thereafter in the Stamper-Woodruff binding assay in the incubation media as described in Example 1.
# [4] = test system: L-selectin-dependent lymphocyte adhesion to cardiac endothelium; conditions: lymphocytes and rejecting rat heart endothelium, Turunen et al. 1995; cited from earlier work
# [5] = target: L-selectin-dependent lymphocyte adhesion to peritubular capillary endothelium (PTCE); test: Stamper-Woodruff binding assay: lymphocyte adhesion to peritubular capillary endothelium of rejecting kidney allografts; conditions: for IC50: read-out: IC50, inhibitory concentration preventing 50% of binding, L-selectin-dependent lymphocyte binding, rejecting rat kidney transplant; for inhibition of lymphocyte binding to PTCE (in words) / inhibitory capacity compared with other oligosaccharides (in words): rejecting kidney allografts
# Description: The animal models for cardiac transplant rejection and kidney transplant rejection utilized inbred WF (RT1^v) and DA (RT1^a) rat strains that were maintained in a colony and regularly tested for intrastrain acceptance of transplants as well as for the absence of intrastrain mixed lymphocyte culture. DA transplants into WF recipients were allografts, WF grafts to WF and DA grafts to DA served as syngeneic controls.
# Small pieces of the removed syngeneic (DA to DA and WF to WF), allogeneic (DA to WF) transplants were mounted in Tissue Tek medium (Lab-Tek Productions, Naperville, Ill.) and snapfrozen in liquid nitrogen. Eight μm thick frozen sections were prepared within one hour prior to the use of the sections in the lymphocyte--endothelium binding assay (Renkonen, R. et al., Transplantation 47:577-579 (1989); Renkonen, R. et al., Am. J. Pathol. 137:643-651 (1990); Turunen J. P. et al., Transplantation 54:1053-1058 (1992); Turunen, J. P. et al., Eur. J. Immunol. 24:1130-1136 (1994); Turunen, J. P. et al., J. Exp. Med., 182:1133-1142 (1995)).
# Single cell suspensions of mesenterical lymph node lymphocytes were made by mechanical disaggregation in RPMI 1640 medium (Gibco, Grand Island, N.Y.) supplemented with Hepes (25 mM) and 0.5% fetal calf serum and the cells were passed through a 50 μm pore size mesh. Over 99% of the cells were lymphocytes, and the lymphocyte population consisted of 80-90% CD3-positive T cells, 50-60% CD4-positive T cells, 25-35% CD8-positive T cells and 10-20% CD19-positive B cells, as analyzed by flow cytometric analyses and immunoperoxidase stainings from cytocentrifuge preparations.
# 3×10^6 cells in 100 μl of the medium were plated on top of the tissue sections using a wax pen circle to avoid escape of the fluid. The sections were rotated horizontally on a shaker at 60 rpm for 30 minutes at +4° C. After incubation, the medium was gently tapped away by an absorbent paper and the slides were fixed in 1.5% cold glutaraldehyde overnight. The slides were stained with thionine for 30 min. The excess thionine was gently washed away from the slides in PBS, and the slides were mounted with PBS-glycerol (1:1) or Aquamount Mountant, (BHD Limited, Poole, England). From these preparations the number of lymphocytes bound to various structures was determined. At least 10-20 high power fields were analyzed from each sample and 3-4 animals were included in each group.
# The oligosaccharides were dissolved in the binding buffer, and the lymphocytes were incubated in these solutions for 30 min in +4° C. Thereafter, the lymphocytes at the saccharide solutions were added to the Stamper-Woodruff binding assay without further washings and the assay was conducted as described above.
# The lymphocytes were, or were not, pretreated for 30 min with various oligosaccharide constructs and added to the Stamper-Woodruff binding assay. After a 30 min binding assay the loose cells were washed away and the number of bound cells were determined.
# The binding assays consisted of three experiments performed on separate days.
# [6] = test system: P-selectin mediated inflammation; conditions: low concentrations; cited from earlier work
# [7] = test system: inflammation; conditions: cited from earlier work
# [8] = test system: CD22; conditions: cited from earlier work
# [9] = listed as disialylated and difucosylated branched polylactosamine decasaccharide
compound,measurement,setting,value
CC(=O)NC1C(O)OC(CO)C(OC2OC(CO)C(O)C(OC3OC(CO)C(OC4OC(CO)C(O)C(OC5OC(CO)C(O)C(O)C5O)C4O)C(O)C3NC(C)=O)C2O)C1O (stereo not drawn) [Galα1-3Galβ1-4GlcNAcβ1-3Galβ1-4GlcNAc],inhibition of mouse sperm adhesion to eggs,[1],does not
fucoidin,concentration that blocked adhesion,[2],in the nM range
NeuAcα2-3Galβ1-4(Fucα1-3)GlcNAcβ1-3(NeuAcα2-3Galβ1-4(Fucα1-3)GlcNAcβ1-6)Galβ1-4GlcNAc [Glycan 4],inhibition of lymphocyte adhesion to cardiac endothelium (in words),[3],significantly reduce lymphocyte binding
same,published Stamper-Woodruff data compared with the present ones,[4],quite similar to the present ones
same,IC50,[5],1000 nM
same,IC50,[5]; [9],500 nM
same,inhibition of lymphocyte binding to PTCE (in words),[5],able to inhibit the lymphocyte binding to PTCE significantly
same,inhibitory capacity compared with other oligosaccharides (in words),[5],slightly weaker inhibitor than 28; also recorded: lesser inhibitory capacity than the alditol 28
same,inhibitory capacity compared with other oligosaccharides (in words),[5]; [9],less effective inhibitor
NeuAcα2-3Galβ1-4(Fucα1-3)GlcNAc [Glycan 1],inhibition of lymphocyte adhesion to cardiac endothelium (in words),[3],significantly reduce lymphocyte binding
same,inhibition of short-term P-selectin mediated inflammation,[6],inhibiting short-term P-selectin mediated inflammation
same,published Stamper-Woodruff data compared with the present ones,[4],quite similar to the present ones
same,decrease of lymphocyte adhesion / prevented L-selectin-dependent lymphocyte binding,[5]; at 0.5 μM,39%
same,inhibition of lymphocyte binding to PTCE (in words),[5],able to inhibit the lymphocyte binding to PTCE significantly
same,anti-inflammatory activity in vivo,[7],anti-inflammatory activity in vivo
CC(=O)N[C@H]1[C@H]([C@H](O)[C@H](O)CO)O[C@@](OC[C@H]2O[C@@H](O[C@H]3[C@H](O)[C@@H](NC(C)=O)C(O)O[C@@H]3CO)[C@H](O)[C@@H](O)[C@H]2O)(C(=O)O)C[C@@H]1O (stereo partly drawn) [NeuAca2-6GalB1-4GlcNAc],binding / affinity to CD22,[8],binds specifically
NeuAcα2-3Galβ1-4GlcNAcβ1-3(NeuAcα2-3Galβ1-4GlcNAcβ1-6)Galβ1-4GlcNAcβ1-6(Galβ1-3)GalNAc-ol [Glycan 26],inhibition of lymphocyte binding to PTCE (in words),[5],practically devoid of inhibitory activity; also recorded: did not inhibit the lymphocyte binding at all; also recorded: did not possess any inhibitory activity
same,inhibition of lymphocyte binding to PTCE (in words),[5]; listed as non-fucosylated O-glycosidic oligosaccharide alditol,did not possess any inhibitory activity
